Experimental data published in PubChem BioAssay (NCI).
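48-hour exposure; five concentrations; linearly interpolated endpoints. Abbreviation: GI50, concentration required for 50% inhibition of growth. TGI is the concentration that stops growth completely.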

How the values were obtained:
Assay in all cases: growth of human tumour cells (NCI), 48 h
NCI-H23 lung = tested on: NCI-H23 lung
UACC-62 melanoma = tested on: UACC-62 melanoma
HCT-116 colon = tested on: HCT-116 colon
SK-MEL-5 melanoma = tested on: SK-MEL-5 melanoma
A498 renal = tested on: A498 renal
SNB-19 CNS = tested on: SNB-19 CNS
SK-OV-3 ovarian = tested on: SK-OV-3 ovarian
SNB-75 CNS = tested on: SNB-75 CNS
PC-3 prostate = tested on: PC-3 prostate
UO-31 renal = tested on: UO-31 renal
HS 578T breast = tested on: HS 578T breast
DMS 114 small cell lung = tested on: DMS 114 small cell lung
HOP-18 NSCLC = tested on: HOP-18 NSCLC
SNB-78 CNS = tested on: SNB-78 CNS

Row | Structure (SMILES) | TGI (NCI-H23 lung) | TGI (UACC-62 melanoma) | TGI (HCT-116 colon) | TGI (SK-MEL-5 melanoma) | TGI (A498 renal) | TGI (SNB-19 CNS) | TGI (SK-OV-3 ovarian) | TGI (SNB-75 CNS) | TGI (PC-3 prostate) | TGI (UO-31 renal) | TGI (HS 578T breast) | GI50 (DMS 114 small cell lung) | TGI (DMS 114 small cell lung) | GI50 (HOP-18 NSCLC) | TGI (HOP-18 NSCLC) | TGI (SNB-78 CNS)
1 | O=C(/C=C/c1ccc(O)c(O)c1)OCC(OC(=O)/C=C/c1ccc(O)c(O)c1)C(=O)O (stereo not drawn) | > 100 µM | > 100 µM | > 100 µM | > 100 µM | > 100 µM | > 100 µM | > 100 µM | > 100 µM | > 100 µM | > 100 µM | > 100 µM | – | – | – | – | –
2 | CCOC(=O)c1sc(=S)n(-c2ccc(Cl)cc2)c1-n1cc(-c2ccccc2)c(C#N)c1N | 70.6 µM | 85.9 µM | > 100 µM | 84.5 µM | 53.9 µM | 41.6 µM | 36 µM | 53.6 µM | 27 µM | – | 14.5 µM | – | – | – | – | –
3 | CC(C)NC(=O)OCc1c2c(n(C)c1COC(=O)NC(C)C)-c1cc(Cl)c(Cl)cc1CC2 | 87.9 µM | > 100 µM | 66.9 µM | > 100 µM | 18.7 µM | > 100 µM | > 100 µM | 81.7 µM | > 100 µM | > 100 µM | > 100 µM | – | – | – | – | –
4 | C=CCCON(C(=O)OC(C)(C)C)c1ccccc1 | > 100 µM | > 100 µM | > 100 µM | > 100 µM | > 100 µM | > 100 µM | > 100 µM | > 100 µM | > 100 µM | > 100 µM | > 100 µM | – | – | – | – | –
5 | CCCCCCNCCc1cnc[nH]1 | > 100 µM | > 100 µM | > 100 µM | > 100 µM | > 100 µM | > 100 µM | > 100 µM | > 100 µM | > 100 µM | > 100 µM | > 100 µM | – | – | – | – | –
6 | OC(CC1CCCCN1)c1ccc2c(c1)oc1ccccc12 (stereo not drawn) | > 100 µM | 44.7 µM | > 100 µM | 34.1 µM | 64.7 µM | > 100 µM | > 100 µM | > 100 µM | > 100 µM | > 100 µM | > 100 µM | – | – | – | – | –
7 | COC(=O)[C@@H]1C=C[C@H](OC2OC(COC(C)=O)C(OC(C)=O)C(OC(C)=O)C2OC(C)=O)n2c(=O)n(-c3ccccc3)c(=O)n21 (stereo partly drawn) | 14 µM | 8.89 µM | 3.82 µM | 7 µM | 20 µM | 25.8 µM | 29.4 µM | 13 µM | 7.67 µM | 5.25 µM | 45.8 µM | – | – | – | – | –
8 | C/C(=N\NS(=O)(=O)c1ccc(C)cc1)c1ccccn1 | > 100 µM | > 100 µM | > 100 µM | > 100 µM | > 100 µM | > 100 µM | > 100 µM | > 100 µM | > 100 µM | > 100 µM | > 100 µM | – | – | – | – | –
9 | N#C[S-].[La+3].c1cnc2c(c1)ccc1cccnc12.c1cnc2c(c1)ccc1cccnc12.c1cnc2c(c1)ccc1cccnc12 | 22.2 µM | 4.8 µM | 10.2 µM | 12.7 µM | 13.5 µM | 20.9 µM | 14.1 µM | 29 µM | – | 10.5 µM | – | 1.58 µM | 5.45 µM | 0.952 µM | 9.46 µM | –
10 | Cc1n(CC(C)C)c2c([n+]1C)C(=O)c1ccccc1C2=O | 0.107 µM | 0.576 µM | 0.23 µM | 0.139 µM | 1.27 µM | 0.647 µM | 2.2 µM | 1.55 µM | 0.337 µM | 3.55 µM | 3.05 µM | – | < 0.0255 µM | – | 3.63 µM | 3.48 µM
11 | Cc1ccc(C(=O)N/N=C(\N=Nc2cccc([N+](=O)[O-])c2)c2ccc(N(CCC#N)CCC#N)cc2C)cc1 | > 82.8 µM | > 100 µM | > 74.8 µM | 28.6 µM | > 81.6 µM | > 100 µM | > 85.2 µM | 74.1 µM | > 100 µM | > 100 µM | > 88.3 µM | – | – | – | – | –
12 | CC1(C)N/C(=C\[N+](=O)[O-])C(C)(C)N1O | > 10 µM | > 10 µM | > 10 µM | > 10 µM | > 10 µM | > 10 µM | > 10 µM | > 10 µM | > 10 µM | – | > 10 µM | – | – | – | – | –
13 | COC(=O)C1=C(OC(=O)/C(=C/c2ccccc2)c2ccc(Cl)cc2Cl)C(C(=O)OC)[C@@]2(O)[C@@H](C(=O)OC)[C@H](C)C[C@@H]1[C@@H]2C(=O)OC (stereo partly drawn) | > 100 µM | > 100 µM | > 100 µM | > 100 µM | > 100 µM | > 100 µM | > 100 µM | > 100 µM | > 100 µM | > 100 µM | > 100 µM | – | – | – | – | –
14 | CS(=O)(=O)C(C#N)c1nc2ccccc2nc1Cl (stereo not drawn) | > 100 µM | > 100 µM | > 100 µM | > 27.1 µM | > 100 µM | > 100 µM | > 100 µM | > 100 µM | > 100 µM | > 100 µM | > 100 µM | – | > 100 µM | – | – | > 100 µM
15 | CSc1c(C(=O)Nc2ccccc2)c(N)n(N)c(=O)c1C#N | > 100 µM | > 100 µM | > 100 µM | > 100 µM | > 100 µM | > 100 µM | > 100 µM | > 100 µM | > 100 µM | > 100 µM | > 100 µM | – | – | – | – | –
16 | CCOC(=O)c1ccc(N=C/C=C(\Nc2ccc(C(=O)OCC)cc2)C23CC4CC(CC(C4)C2)C3)cc1 | > 100 µM | > 100 µM | > 100 µM | > 100 µM | > 100 µM | > 100 µM | > 100 µM | > 100 µM | > 100 µM | > 100 µM | > 100 µM | – | – | – | – | –
17 | O=C1COc2cc(NC(=S)Nc3ccccc3)ccc2N1 | > 100 µM | > 100 µM | > 100 µM | > 100 µM | – | > 100 µM | > 100 µM | > 100 µM | – | > 100 µM | – | – | > 100 µM | – | > 100 µM | > 100 µM
18 | C=C(CCOC)CCC1CCCCC(CN(C)C)C1=O (stereo not drawn) | > 100 µM | > 100 µM | > 100 µM | > 100 µM | > 100 µM | > 100 µM | > 100 µM | > 100 µM | > 100 µM | > 100 µM | > 100 µM | – | – | – | – | –
